Experimental data reported in patent US20080305186A1, “Method and Composition for the Treatment of Cardiac Hypertrophy” (BOARD OF REGENTS, THE UNIVERSITY OF TEXAS SYSTEM, priority 2007, published 2008).

Test system: cardiac gene expression
Experiment: Microarray analysis of cardiac gene expression (GeneChip Mouse Genome 430 2.0)
Assay type: in vivo, mice
Procedure: Microarray Sample Preparation and Analysis. Animal hearts were rapidly removed, and the atria and right ventricles were cut and immediately plunged into TRIzol Reagent (Life Technologies). Total RNA was isolated following the manufacturer's instructions, purified by phenol-chloroform extraction and then ethanol precipitation, and 20 μg further processed for microarray analysis. Briefly, cDNA synthesis, in vitro transcription, and labeling and fragmentation to produce the oligonucleotide probes were performed as instructed by the GeneChip manufacturer (Affymetrix). The probes were first hybridized to a test array (Affymetrix) and then to the GeneChip Mouse Genome 430 2.0 Array, using the GeneChip Hybridization Oven 640. The chips were washed in a GeneChip Fluidics Station 450 (Affymetrix), and the results were visualized with a GeneChip G7 scanner (Affymetrix). RMA normalization, pairwise comparisons, Student's t test and Benjamini and Hochberg correction were subsequently performed using GeneSifter (VizX Labs, Seattle, Wash.) and Spotfire DecisionSite 8.3 (Spotfire, Inc., Somerville, Mass.).
Effects on Gene Expression Profile. […] One mouse heart was used for each array, and was performed in triplicate, generating a total of 12 arrays. GeneSifter was used to perform RMA normalization, pairwise comparisons of averaged signal intensity values, and Student's t-test with Benjamini and Hochberg correction, and Spotfire was used to perform pairwise comparisons. […] Additionally, genes that were altered between any two N or cardiac hypertrophy samples were removed, as these alterations most likely represented normal variations between mice.

C[C@H]1c2cccc(O)c2C(=O)C2=C(O)[C@]3(O)C(=O)C(C(N)=O)=C(O)[C@@H](N(C)C)[C@@H]3[C@@H](O)[C@@H]21 [doxycycline]
FC Tubulointerstitial nephritis antigen-like (Tinagl) (GenBank BC005738, heart, drug + isoproterenol vs isoproterenol-only mice, CH vs normal FC 2.1): −1.8 fold
FC Tubulin alpha (Tuba2) (GenBank BC008117, heart, drug + isoproterenol vs isoproterenol-only mice, CH vs normal FC −2.7): 4.1 fold
FC Intercellular adhesion molecule (Icam1) (GenBank BC008626, vs mice given only isoproterenol): −2.7
FC Similar to serine protease inhibitor-2 related sequee 1 (Serpina3m) (GenBank BC011158, vs mice given only isoproterenol): −2.4
FC Phosphatidylinositol binding clathrin assembly protein (Picalm) (GenBank BC011470, vs mice given only isoproterenol): −1.5
FC Isochorismatase domain containing 1 (Isoc1) (GenBank BC016576, vs mice given only isoproterenol): 2.8
FC EGF, latrophilin seven transmembrane domain containing 1 (Eltd1) (GenBank BC017134, vs mice given only isoproterenol): −2.0
FC Ras homolog gene family, member B (RhoB) (GenBank BC018275, vs mice given only isoproterenol): −2.1
FC D site albumin promoter binding protein (Dbp) (GenBank BC018323, vs mice given only isoproterenol): 10.2
FC RAD52 homolog (S. cerevisiae) (Rad52) (GenBank BC019123, vs mice given only isoproterenol): −1.8
FC Leucine-rich repeat-containing 3b (Lrrc3b) (GenBank BC019794, vs mice given only isoproterenol): 1.9
FC Solute carrier family 45, member 3 (Slc45a3) (GenBank BC024519, vs mice given only isoproterenol): −1.8
FC Rho GTPase activating protein 24 (Arhgap24) (GenBank BC025502, vs mice given only isoproterenol): −1.8
FC Motile sperm domain containing 2 (Mospd) (GenBank BC026425, vs mice given only isoproterenol): −1.7
FC Similar to metallothionein 1 (Mt1) (GenBank BC027262, vs mice given only isoproterenol): −2.7
FC Guanine deaminase (Gda) (GenBank BE136057, vs mice given only isoproterenol): −1.7
FC EST (GenBank BE553782, vs mice given only isoproterenol): −1.6
FC EST (GenBank BE630303, vs mice given only isoproterenol): −1.8
FC ESTs (GenBank BE630363, vs mice given only isoproterenol): −3.1
FC ESTs (GenBank BE685667, vs mice given only isoproterenol): −3.2
FC EST (GenBank BE687858, vs mice given only isoproterenol): −1.5
FC EST (GenBank BE852759, vs mice given only isoproterenol): 1.7
FC Retinoblastoma binding protein 4 (Rbbp4) (GenBank BF011461, vs mice given only isoproterenol): 2.1
FC Methyl-CpG binding domain protein 1 (Mbd1) (GenBank BF121558, vs mice given only isoproterenol): −1.8
FC SET translocation (Set) (GenBank BF134272, vs mice given only isoproterenol): 2.0
FC Protein tyrosine phosphatase 4a1 (Ptp4a1) (GenBank BF179910, vs mice given only isoproterenol): −1.9
FC Potassium channel, subfamily K, member 3 (Kcnk3) (GenBank BF467278, vs mice given only isoproterenol): 3.9
FC Smoothelin (Smtn) (GenBank BF578669, vs mice given only isoproterenol): 1.5
FC EST (GenBank BF780807, vs mice given only isoproterenol): −1.9
FC ESTs (GenBank BG067678, vs mice given only isoproterenol): 2.6
FC EST (GenBank BG068705, vs mice given only isoproterenol): −1.7
FC SET domain containing (lysine methyltransferase) 8)Setd8) (GenBank BG069700, vs mice given only isoproterenol): 1.9
FC Neuronal PAS domain protein 2 (Npas2) (GenBank BG070037, vs mice given only isoproterenol): −2.6
FC Pleckstrin homology domain containing, family G (with RhoGef domain) member 1 (Plekhg1) (GenBank BG073502, vs mice given only isoproterenol): −2.0
FC Microtubule-actin crosslinking factor 1 (Macf1) (GenBank BG074706, vs mice given only isoproterenol): 2.7
FC Insulin-like growth factor 1 (Igf1) (GenBank BG075165, vs mice given only isoproterenol): 2.3
FC p53 regulated PA26 nuclear protein (Sestrin 1) (Sesn1) (GenBank BG076140, 1st listing, vs mice given only isoproterenol): −2.9
FC p53 regulated PA26 nuclear protein (Sestrin 1) (Sesn1) (GenBank BG076140, 2nd listing, vs mice given only isoproterenol): −3.5
FC EST (GenBank BG092512, vs mice given only isoproterenol): −2.9
FC Transforming growth factor, beta receptor II (Tgfbr2) (GenBank BG793483, heart, drug + isoproterenol vs isoproterenol-only mice, CH vs normal FC 2.4): −2.3 fold
FC Restin-like 2 (Rsnl2) (GenBank BG916957, vs mice given only isoproterenol): 1.9
FC mVL30-1 retroelement (GenBank BI076714, vs mice given only isoproterenol): −2.1
FC Methylcrotonoyl-Coenzyme A carboxylase 2 (beta) (Mccc2) (GenBank BI155184, vs mice given only isoproterenol): 1.7
FC Transforming, acidic coiled-coil containing protein 2 (Tacc2) (GenBank BI466416, heart, drug + isoproterenol vs isoproterenol-only mice, CH vs normal FC 2.6): −2.5 fold
FC PHD finger protein 15 (Phf15) (GenBank BI663145, vs mice given only isoproterenol): −2.1
FC Tissue inhibitor of metalloproteinase 4 (Timp4) (GenBank BI788452, heart, drug + isoproterenol vs isoproterenol-only mice, CH vs normal FC 3.2): −3.1 fold
FC Zi finger and BTB domain containing 16 (Zbtb16) (GenBank BM115255, heart, drug + isoproterenol vs isoproterenol-only mice, CH vs normal FC 7.5): −1.6 fold
FC GTL2, imprinted maternally expressed untranslated mRNA (Gtl2) (GenBank BM119226, vs mice given only isoproterenol): 1.7
FC Ectodermal-neural cortex 1 (E1) (GenBank BM120053, 1st listing, vs mice given only isoproterenol): −2.0
FC Ectodermal-neural cortex 1 (E1) (GenBank BM120053, 2nd listing, vs mice given only isoproterenol): −1.9
FC Pellino 2(peli2) (GenBank BM121149, vs mice given only isoproterenol): −1.9
FC REST corepressor 1 (Rcor1) (GenBank BM194994, vs mice given only isoproterenol): 3.3
FC EST (GenBank BM219553, vs mice given only isoproterenol): −2.6
FC Phospholipase D1 (Pld1) (GenBank BM228590, 1st listing, vs mice given only isoproterenol): −2.0
FC Phospholipase D1 (Pld1) (GenBank BM228590, 2nd listing, vs mice given only isoproterenol): −1.6
FC SET translocation (Set) (GenBank BM229104, vs mice given only isoproterenol): 2.0
FC p53 regulated PA26 nuclear protein (Sestrin 1) (Sesn1) (GenBank BM237933, vs mice given only isoproterenol): −2.4
FC Macrophage activation 2 (Mpa21) (GenBank BM241485, vs mice given only isoproterenol): −3.6
FC Prohibitin (Phb) (GenBank BM243379, vs mice given only isoproterenol): −2.1
FC Serine iorporator 3 (Seri3) (GenBank BM244064, vs mice given only isoproterenol): −1.8
